Test results from patent publication US6475531B1, “Safe botanical drug for treatment and prevention of influenza and increasing immune function” (priority 2001, dated 2002).
In brackets after ≈: the same amount, converted by molar mass.

Assays:
Assay type in all cases: cell-based, influenza A viruses
A/Brazil/11/78 (H1N1) = assay: Plaque inhibition assay in MDCK cells; details: Influenza A virus
A/England/939/69 = assay: Plaque inhibition assay in MDCK cells; details: Influenza A virus
A/Singapore/1/75 (H2N2) = assay: microbe, parasite or virus in culture; details: Influenza A virus, H2N2, MDCK
A/Beijing/32/92 (H3N2) = assay: Plaque inhibition assay in MDCK cells; details: Influenza A virus

SMILES	IC50 (A/Brazil/11/78 (H1N1))	IC50 (A/England/939/69)	IC50 (A/Singapore/1/75 (H2N2))	IC50 (A/Beijing/32/92 (H3N2))
NC12CC3CC(CC(C3)C1)C2 [Amantadine]	38 µg/mL (≈ 251 µM)	21 µg/mL (≈ 139 µM)	11 µg/mL (≈ 72.7 µM)	25 µg/mL (≈ 165 µM)
NC(=O)c1ncn([C@@H]2O[C@H](CO)[C@@H](O)[C@H]2O)n1 [Ribavirin]	56 µg/mL (≈ 229 µM)	46 µg/mL (≈ 188 µM)	82 µg/mL (≈ 336 µM)	90 µg/mL (≈ 369 µM)
